From patent US7741354B2, “Inhibitors of glutaminyl cyclase” (Probiodrug AG, priority 2006, dated 2010)

The compounds below were run against hQC (Homo sapiens, UniProt Q16769) (assay: Fluorometric (fluorescent) assay of hQC inhibition, IC50). Settings: hQC inhibition; read-out: IC50.
Type: biochemical
Protocol: All compounds were immediately tested regarding their activity as hQC inhibitors.
The purity of the compounds was determined by HPLC-MS. The IC50 value against hQC was measured using the fluorescent assay.
All measurements were performed with a BioAssay Reader HTS-7000Plus for microplates (Perkin Elmer) at 30° C. QC activity was evaluated fluorometrically using H-Gln-βNA. The samples consisted of 0.2 mM fluorogenic substrate, 0.25 U pyroglutamyl aminopeptidase (Unizyme, Horsholm, Denmark) in 0.2 M Tris/HCl, pH 8.0 containing 20 mM EDTA and an appropriately diluted aliquot of QC in a final volume of 250 μl. Excitation/emission wavelengths were 320/410 nm. The assay reactions were initiated by addition of glutaminyl cyclase. QC activity was determined from a standard curve of β-naphthylamine under assay conditions. One unit is defined as the amount of QC catalyzing the formation of 1 μmol pGlu-βNA from H-Gln-βNA per minute under the described conditions.
In a second fluorometric assay, QC was activity determined using H-Gln-AMC as substrate. Reactions were carried out at 30° C. utilizing the NOVOStar reader for microplates (BMG labtechnologies). The samples consisted of varying concentrations of the fluorogenic substrate, 0.1 U pyroglutamyl aminopeptidase (Qiagen) in 0.05 M Tris/HCl, pH 8.0 containing 5 mM EDTA and an appropriately diluted aliquot of QC in a final volume of 250 μl. Excitation/emission wavelengths were 380/460 nm. The assay reactions were initiated by addition of glutaminyl cyclase. QC activity was determined from a standard curve of 7-amino-4-methylcoumarin under assay conditions. The kinetic data were evaluated using GraFit sofware.
For inhibitor testing, the sample composition was the same as described above, except of the putative inhibitory compound added. For a rapid test of QC-inhibition, samples contained 4 mM of the respective inhibitor and a substrate concentration at 1 KM. For detailed investigations of the inhibition and determination of Ki-values, influence of the inhibitor on the auxiliary enzymes was investigated first. […] The inhibitory constant was evaluated by fitting the set of progress curves to the general equation for competitive inhibition using GraFit software.

Chain of hQC (Q16769 29-361): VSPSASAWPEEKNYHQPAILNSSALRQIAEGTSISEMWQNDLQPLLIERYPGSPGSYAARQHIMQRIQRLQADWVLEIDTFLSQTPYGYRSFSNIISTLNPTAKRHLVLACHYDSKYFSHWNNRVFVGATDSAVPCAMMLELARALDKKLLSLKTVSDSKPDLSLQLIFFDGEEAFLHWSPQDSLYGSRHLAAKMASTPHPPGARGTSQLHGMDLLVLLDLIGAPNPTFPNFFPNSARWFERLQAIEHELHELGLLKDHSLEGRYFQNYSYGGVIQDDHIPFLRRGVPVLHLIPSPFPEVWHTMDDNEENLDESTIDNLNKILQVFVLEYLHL

Point of comparison: OCc1ccc(C(Nc2ccc3[nH]cnc3c2)c2nnnn2Cc2ccc(Cl)cc2)o1 (centres unmarked) [compound 121, (5-{(1H-Benzoimidazol-5-ylamino)-[1-(4-chloro-benzyl)-1H-tetrazol-5-yl]-methyl}-furan-2-yl)-methanol], IC50 4.9 µM. Against it:
- CC1(C)OCC(Cn2nnnc2C(Nc2ccc3[nH]cnc3c2)c2ccc(Cl)c([N+](=O)[O-])c2)O1 (centres unmarked) [compound 171, (1H-Benzoimidazol-5-yl)-{(4-chloro-3-nitro-phenyl)-[1-(2,2-dimethyl-[1,3]dioxolan-4-ylmethyl)-1H-tetrazol-5-yl]-methyl}-amine] — 1.7-fold higher, 8.5 µM
- Brc1cc(Br)cc(C(Nc2ccc3[nH]cnc3c2)c2nnnn2CC2CCCO2)c1 (centres unmarked) [compound 170, (1H-Benzoimidazol-5-yl)-{(3,5-dibromo-phenyl)-[1-(tetrahydro-furan-2-ylmethyl)-1H-tetrazol-5-yl]-methyl}-amine] — the same, 4.9 µM
- Fc1ccc2c(C(Nc3ccc4[nH]cnc4c3)c3nnnn3CC3CCCO3)c[nH]c2c1 (centres unmarked) [compound 144, (1H-Benzoimidazol-5-yl)-{(6-fluoro-1H-indol-3-yl)-[1-(tetrahydro-furan-2-ylmethyl)-1H-tetrazol-5-yl]-methyl}-amine] — within 1.5-fold, 5.8 µM
- Oc1ccc(C(Nc2ccc3[nH]cnc3c2)c2nnnn2Cc2ccc(Cl)cc2)cc1 (centres unmarked) [compound 191, 4-{(1H-Benzoimidazol-5-ylamino)-[1-(4-chloro-benzyl)-1H-tetrazol-5-yl]-methyl}-phenol] — 1.6-fold lower, 3.1 µM
- CCCOc1cccc(C(Nc2ccc3[nH]cnc3c2)c2nnnn2C2CCCCC2C(=O)OCC)c1 (centres unmarked) [compound 208] — 2.2-fold lower, 2.2 µM
- O=C1CCCN1CCCn1nnnc1C(Nc1ccc2[nH]cnc2c1)c1cc(Br)cc(Br)c1 (centres unmarked) [compound 176, 1-(3-{5-[(1H-Benzoimidazol-5-ylamino)-(3,5-dibromo-phenyl)-methyl]-tetrazol-1-yl}-propyl)-pyrrolidin-2-one] — within 1.5-fold, 5.8 µM
- Brc1cc(Br)cc(C(Nc2ccc3[nH]cnc3c2)c2nnnn2-c2ccc(Oc3ccccc3)cc2)c1 (centres unmarked) [compound 178, (1H-Benzoimidazol-5-yl)-{(3,5-dibromo-phenyl)-[1-(4-phenoxy-phenyl)-1H-tetrazol-5-yl]-methyl}-amine] — within 1.5-fold, 5.8 µM
- CC(CC(Nc1ccc2[nH]cnc2c1)c1nnnn1-c1ccc(Oc2ccccc2)cc1)c1ccccc1 (centres unmarked) [compound 204, (1H-Benzoimidazol-5-yl)-{1-[1-(4-phenoxy-phenyl)-1H-tetrazol-5-yl]-3-phenyl-butyl}-amine] — within 1.5-fold, 6.7 µM
- Clc1ccc(Cn2nnnc2C(Nc2ccc3[nH]cnc3c2)c2ccc3nsnc3c2)cc1 (centres unmarked) [compound 166] — 12-fold lower, 0.4 µM
- c1ccc(Oc2ccc(-n3nnnc3C(Nc3ccc4[nH]cnc4c3)c3ccc4c(c3)OCO4)cc2)cc1 (centres unmarked) [compound 139, {Benzo[1,3]dioxol-5-yl-[1-(4-phenoxy-phenyl)-1H-tetrazol-5-yl]-methyl}-(1H-benzoimidazol-5-yl)-amine] — within 1.5-fold, 4 µM
- CCc1ccc(C(Nc2ccc3[nH]cnc3c2)c2nnnn2CC2CCCO2)s1 (centres unmarked) [compound 129, (1H-Benzoimidazol-5-yl)-{(5-ethyl-thiophen-2-yl)-[1-(tetrahydro-furan-2-ylmethyl)-1H-tetrazol-5-yl]-methyl}-amine] — 1.7-fold higher, 8.5 µM
- Clc1ccccc1Cn1nnnc1C(Nc1ccc2[nH]cnc2c1)c1ccc2nsnc2c1 (centres unmarked) [compound 205] — 2.2-fold lower, 2.2 µM
- CC(C)(C)c1ccc(-n2nnnc2C(Nc2ccc3[nH]cnc3c2)c2ccc3nsnc3c2)cc1 (centres unmarked) [compound 117] — within 1.5-fold, 4 µM
- Clc1ccc(C(Nc2ccc3[nH]cnc3c2)c2nnnn2Cc2ccccc2Cl)cc1 (centres unmarked) [compound 127, (1H-Benzoimidazol-5-yl)-[[1-(2-chloro-benzyl)-1H-tetrazol-5-yl]-(4-chloro-phenyl)-methyl]-amine] — 1.6-fold lower, 3.1 µM
- CSc1ccc(C(Nc2ccc3[nH]cnc3c2)c2nnnn2CC2CCCO2)cc1 (centres unmarked) [compound 140, (1H-Benzoimidazol-5-yl)-{(4-methylsulfanyl-phenyl)-[1-(tetrahydro-furan-2-ylmethyl)-1H-tetrazol-5-yl]-methyl}-amine] — within 1.5-fold, 6.7 µM

Same assay, conditions: read-out: IC50

Point of comparison: COc1ccc(C(Nc2ccc3[nH]cnc3c2)c2nnnn2Cc2ccc(Cl)cc2)c(C)c1 (centres unmarked) [compound 75, (1H-Benzoimidazol-5-yl)-[[1-(4-chloro-benzyl)-1H-tetrazol-5-yl]-(4-methoxy-2-methyl-phenyl)-methyl]-amine], IC50 2.2 µM. Against it:
- Cn1nnnc1C(NCCCn1ccnc1)c1ccc2ccccc2n1 (centres unmarked) [compound 31, (3-Imidazol-1-yl-propyl)-[(1-methyl-1H-tetrazol-5-yl)-quinolin-2-yl-methyl]-amine] — 2.2-fold higher, 4.9 µM
- COCCCn1nnnc1C(NCCCn1ccnc1)c1cc(O)ccc1C (centres unmarked) [compound 33, 3-{(3-Imidazol-1-yl-propylamino)-[1-(3-methoxy-propyl)-1H-tetrazol-5-yl]-methyl}-4-methyl-phenol] — 1.8-fold higher, 4 µM
- COC(=O)Cn1nnnc1C(NCCCn1ccnc1)c1ccc(OC)c(O)c1 (centres unmarked) [compound 58, {5-[(3-Hydroxy-4-methoxy-phenyl)-(3-imidazol-1-yl-propylamino)-methyl]-tetrazol-1-yl}-acetic methyl ester] — 1.8-fold higher, 4 µM
- c1nc2cc(NC(c3ccc4nsnc4c3)c3nnnn3CC3CCCO3)ccc2[nH]1 (centres unmarked) [compound 105] — 2.2-fold higher, 4.9 µM
- COc1ccc(C(Nc2ccc3[nH]cnc3c2)c2nnnn2C2CCCCC2)cc1 (centres unmarked) [compound 72, (1H-Benzoimidazol-5-yl)-[(1-cyclohexyl-1H-tetrazol-5-yl)-(4-methoxy-phenyl)-methyl]-amine] — the same, 2.2 µM
- CC(C)(C)n1nnnc1C(NCCCn1ccnc1)[C@@H]1CCC=CO1 (stereo in doubt) [compound 61, [(S)-(1-tert-Butyl-1H-tetrazol-5-yl)-3,4-dihydro-2H-pyran-2-yl-methyl]-(3-imidazol-1-yl-propyl)-amine] — 3-fold higher, 6.7 µM
- c1ccc(C(c2ccccc2)n2nnnc2C(Nc2ccc3[nH]cnc3c2)c2ccc3nsnc3c2)cc1 (centres unmarked) [compound 112, [(1-Benzhydryl-1H-tetrazol-5-yl)-benzo[c][1,2,5]thia-diazol-5-yl-methyl]-(1H-benzoimidazol-5-yl)-amine] — 2.6-fold higher, 5.8 µM
- COCCn1nnnc1C(NCCCn1ccnc1)c1ccc2[nH]ccc2c1 (centres unmarked) [compound 41, (3-Imidazol-1-yl-propyl)-{(1H-indol-5-yl)-[1-(2-methoxy-ethyl)-1H-tetrazol-5-yl]-methyl}-amine] — 2.2-fold higher, 4.9 µM
- CSCCC(Nc1ccc2[nH]cnc2c1)c1nnnn1C(c1ccccc1)c1ccccc1 (centres unmarked) [compound 95, [1-(1-Benzhydryl-1H-tetrazol-5-yl)-3-methylsulfanyl-propyl]-(1H-benzoimidazol-5-yl)-amine] — 2.2-fold higher, 4.9 µM
- c1ccc2oc(C(Nc3ccc4[nH]cnc4c3)c3nnnn3C3CCCCC3)cc2c1 (centres unmarked) [compound 79, [Benzofuran-2-yl-(1-cyclohexyl-1H-tetrazol-5-yl)-methyl]-(1H-benzoimidazol-5-yl)-amine] — within 1.5-fold, 3.1 µM
- COC(=O)c1cccc(C(Nc2ccc3[nH]cnc3c2)c2nnnn2Cc2ccc(Cl)cc2)c1 (centres unmarked) [compound 85, 3-{(1H-Benzoimidazol-5-ylamino)-[1-(4-chloro-benzyl)-1H-tetrazol-5-yl]-methyl}-benzoic acid methyl ester] — 1.7-fold lower, 1.3 µM
- COc1cccc(C(Nc2ccc3[nH]cnc3c2)c2nnnn2CC2CCCO2)c1 (centres unmarked) [compound 89, (1H-Benzoimidazol-5-yl)-{(3-methoxy-phenyl)-[1-(tetrahydro-furan-2-ylmethyl)-1H-tetrazol-5-yl]-methyl}-amine] — 3.5-fold higher, 7.6 µM
